We go through four compounds from article PMC11578313, “Miniaturized Modular Click Chemistry‐enabled Rapid Discovery of Unique SARS‐CoV‐2 M^pro Inhibitors With Robust Potency and Drug‐like Profile” (Advanced Science, 2024).

Like-named read-outs stand apart in the source and are kept apart here.

In one test the test system is Wild‐type rgSARS‐CoV‐2. Kind of test: microbe, parasite or virus in culture. In kind it is cell-based, SARS‐CoV‐2.
Test [1] concerns rgSARS‐CoV‐2‐M^pro/L50F+E166V. Type of test: cell-based, SARS‐CoV‐2. The following applies: read-out: EC50 ± SD, rgSARS‐CoV‐2‐M^pro/L50F+E166V.
For test [2], the system named is rgSARS‐CoV‐2‐M^pro/T21I+E166V. Type of test: cell-based, SARS‐CoV‐2. The following applies: read-out: EC50 ± SD, rgSARS‐CoV‐2‐M^pro/T21I +E166V.
The test system of test [3] is SARS‐CoV‐2 (hCoV‐19/Korea/KCDC06/2020, wild type). Kind of test: microbe, parasite or virus in culture. Type of test: cell-based.
[4] abbreviates: Severe acute respiratory syndrome coronavirus 2, Calu-3; read-out: EC50 ± SD, Wild‐type rgSARS‐CoV‐2.

Take `Cc1cncc(C(=O)N2C[C@H]3CC[C@@H](C2)N3C(c2cccc(F)c2)c2cn(CCc3ccsc3)nn2)c1` (some centres unmarked) [Compound C5N17]: the results for the EC50 (with Wild‐type rgSARS‐CoV‐2 (setting [4]); in test [1]; in test [2]) were 441 ± 32 nM, 966 ± 40 nM and 1470 ± 123 nM, respectively.
The corresponding values for `Cc1cncc(C(=O)N2C[C@H]3CC[C@@H](C2)N3C(c2cccc(F)c2)c2cccc(F)c2)c1` [AA‐625, reference compound] are 779 ± 173 nM, 5710 ± 664 nM and 3410 ± 821 nM.
As for `Cc1cncc(C(=O)N2C[C@H]3CC[C@@H](C2)N3[C@H](c2cccc(F)c2)c2cn(CCc3ccsc3)nn2)c1` [Compound C5N17B], the EC50 is less than 46 nM in the test with Wild‐type rgSARS‐CoV‐2 (setting [4]); 130 to 260 nM in test [3] (Severe acute respiratory syndrome coronavirus 2, Calu-3, Gamma, Delta, and Omicron, read-out: EC50 against several SARS‐CoV‐2 variants); 119 to 260 nM in test [3] (Severe acute respiratory syndrome coronavirus 2, wild‐type, gamma, delta, and omicron, Calu‐3, read-out: EC50 against the original strain and its circulating variants); 150 ± 19 nM in test [1]; 260 ± 29 nM in test [2].
As to `CC(C)(C)[C@H](NC(=O)C(F)(F)F)C(=O)N1C[C@H]2[C@@H]([C@H]1C(=O)N[C@H](C#N)C[C@@H]1CCNC1=O)C2(C)C` [Nirmatrelvir, reference compound], the EC50 with Wild‐type rgSARS‐CoV‐2 (Severe acute respiratory syndrome coronavirus 2, Calu-3, read-out: EC50 ± SD, Wild‐type rgSARS‐CoV‐2) is 2770 ± 33 nM; in test [1], more than 100000 nM; in test [2], more than 100000 nM.
